# Reference: patent US20260062387A1, “SALT-INDUCIBLE KINASE INHIBITOR COMPOUND AND PHARMACEUTICAL COMPOSITION INCLUDING THE SAME” (MITSUBISHI TANABE PHARMA CORPORATION, priority 2023, published 2026)
# Tests used:
# Format in all cases: biochemical
# [1] = target: GST-tagged SIK1 (Homo sapiens (Human), UniProt P57059); test: SIK1 inhibition test (ADP-Glo Max Assay); conditions: enzyme 20 nM, AMARA Peptide 200 μM, ATP 1 mM, 2 hours room temperature
# Procedure: (§1) The compounds described in Examples above were used in the SIK1, SIK2, and SIK3 inhibition test.
# (§2) The inhibitory activity of the compound for SIK1, SIK2, and SIK3 enzymes was assayed by measuring the amount of ADP, an enzyme reaction product, with ADP-Glo™ Max Assay (Promega). Enzymes, specifically, GST-tagged SIK1 (Carna Biosciences, Inc.), GST-tagged SIK2 (Carna Biosciences, Inc.), and GST-tagged SIK3 (SignalChem) were prepared in a reaction buffer (15 mM tris-hydrochloric acid buffer (pH 7.5), 0.001% Triton X-100, 0.01% BSA) so that the final concentration would be 20 nM, 3 nM, and 100 nM. Enzyme solutions were thus formed. In a reaction buffer, AMARA Peptide (SignalChem) as a substrate with a final concentration of 200 μM (SIK1, SIK2) or 100 μM (SIK3), ATP (Promega) with a final concentration of 1 mM, and magnesium chloride with a final concentration of 5 mM were prepared. Substrate solutions were thus formed. The enzyme solution, the substrate solution, and a DMSO solution of a concentration of the test compound were mixed together and reacted at room temperature for 2 hours. After the reaction, ADP-Glo™ Reagent (Promega) was added, and the reaction was performed at room temperature for 30 minutes. Subsequently, ADP-Glo™ Max Detection Reagent (Promega) was added, and the reaction was performed at room temperature for 30 minutes. The emission by the luciferase reaction was measured with PHERAstar FSX (BMG LABTECH).
# (§3) The inhibitory ratio (%) was calculated by: % Inhibition={1−(intensity of sample−intensity of blank (no enzyme solution added))/(intensity of control (DMSO alone)−intensity of blank)}×100. The inhibitory concentration IC50 was calculated based on 16 data values obtained in the concentration response test.
# [2] = target: GST-tagged SIK2 (Homo sapiens (Human), UniProt Q9H0K1); test: SIK2 inhibition test (ADP-Glo Max Assay); conditions: enzyme 3 nM, AMARA Peptide 200 μM, ATP 1 mM, 2 hours room temperature
# Procedure: as §1, §2, §3
# [3] = target: GST-tagged SIK3 (Homo sapiens (Human), UniProt Q9Y2K2); test: SIK3 inhibition test (ADP-Glo Max Assay); conditions: enzyme 100 nM, AMARA Peptide 100 μM, ATP 1 mM, 2 hours room temperature
# Procedure: as §1, §2, §3
# Sequence of GST-tagged SIK3 (Q9Y2K2 whole entry): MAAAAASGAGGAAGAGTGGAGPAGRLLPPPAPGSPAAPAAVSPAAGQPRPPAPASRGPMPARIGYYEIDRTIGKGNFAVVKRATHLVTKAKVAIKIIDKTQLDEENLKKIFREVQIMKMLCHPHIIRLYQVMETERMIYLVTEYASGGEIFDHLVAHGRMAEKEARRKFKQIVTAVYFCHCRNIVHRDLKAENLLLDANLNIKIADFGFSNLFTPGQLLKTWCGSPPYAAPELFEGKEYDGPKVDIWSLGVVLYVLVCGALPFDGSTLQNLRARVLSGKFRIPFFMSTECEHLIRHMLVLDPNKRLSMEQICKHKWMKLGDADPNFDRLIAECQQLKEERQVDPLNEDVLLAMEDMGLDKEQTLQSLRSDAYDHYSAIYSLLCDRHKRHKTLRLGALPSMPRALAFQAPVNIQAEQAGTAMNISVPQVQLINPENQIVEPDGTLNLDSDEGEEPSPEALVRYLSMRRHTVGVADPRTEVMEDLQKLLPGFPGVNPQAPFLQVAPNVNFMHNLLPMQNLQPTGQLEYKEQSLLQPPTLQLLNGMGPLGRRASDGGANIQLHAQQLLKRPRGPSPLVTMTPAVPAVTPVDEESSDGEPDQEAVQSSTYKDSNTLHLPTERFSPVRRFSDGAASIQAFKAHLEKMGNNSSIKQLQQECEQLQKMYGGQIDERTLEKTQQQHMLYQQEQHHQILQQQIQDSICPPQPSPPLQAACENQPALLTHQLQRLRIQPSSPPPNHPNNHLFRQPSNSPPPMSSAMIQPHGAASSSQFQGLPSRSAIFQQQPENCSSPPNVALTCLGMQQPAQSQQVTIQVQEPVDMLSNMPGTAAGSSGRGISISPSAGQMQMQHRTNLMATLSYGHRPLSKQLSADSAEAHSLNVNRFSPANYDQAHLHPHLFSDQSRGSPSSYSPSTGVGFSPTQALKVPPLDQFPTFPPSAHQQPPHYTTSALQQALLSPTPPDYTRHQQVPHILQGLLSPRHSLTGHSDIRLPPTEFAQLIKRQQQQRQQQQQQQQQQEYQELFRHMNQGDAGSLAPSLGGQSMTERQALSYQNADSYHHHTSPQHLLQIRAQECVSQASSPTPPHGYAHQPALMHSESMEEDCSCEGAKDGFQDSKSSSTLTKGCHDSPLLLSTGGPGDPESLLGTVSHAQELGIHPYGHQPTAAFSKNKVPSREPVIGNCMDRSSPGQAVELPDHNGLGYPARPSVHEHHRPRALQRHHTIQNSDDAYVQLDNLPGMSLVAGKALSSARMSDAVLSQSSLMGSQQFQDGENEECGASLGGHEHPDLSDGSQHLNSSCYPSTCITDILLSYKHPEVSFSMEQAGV
# Sequence of GST-tagged SIK2 (Q9H0K1 whole entry): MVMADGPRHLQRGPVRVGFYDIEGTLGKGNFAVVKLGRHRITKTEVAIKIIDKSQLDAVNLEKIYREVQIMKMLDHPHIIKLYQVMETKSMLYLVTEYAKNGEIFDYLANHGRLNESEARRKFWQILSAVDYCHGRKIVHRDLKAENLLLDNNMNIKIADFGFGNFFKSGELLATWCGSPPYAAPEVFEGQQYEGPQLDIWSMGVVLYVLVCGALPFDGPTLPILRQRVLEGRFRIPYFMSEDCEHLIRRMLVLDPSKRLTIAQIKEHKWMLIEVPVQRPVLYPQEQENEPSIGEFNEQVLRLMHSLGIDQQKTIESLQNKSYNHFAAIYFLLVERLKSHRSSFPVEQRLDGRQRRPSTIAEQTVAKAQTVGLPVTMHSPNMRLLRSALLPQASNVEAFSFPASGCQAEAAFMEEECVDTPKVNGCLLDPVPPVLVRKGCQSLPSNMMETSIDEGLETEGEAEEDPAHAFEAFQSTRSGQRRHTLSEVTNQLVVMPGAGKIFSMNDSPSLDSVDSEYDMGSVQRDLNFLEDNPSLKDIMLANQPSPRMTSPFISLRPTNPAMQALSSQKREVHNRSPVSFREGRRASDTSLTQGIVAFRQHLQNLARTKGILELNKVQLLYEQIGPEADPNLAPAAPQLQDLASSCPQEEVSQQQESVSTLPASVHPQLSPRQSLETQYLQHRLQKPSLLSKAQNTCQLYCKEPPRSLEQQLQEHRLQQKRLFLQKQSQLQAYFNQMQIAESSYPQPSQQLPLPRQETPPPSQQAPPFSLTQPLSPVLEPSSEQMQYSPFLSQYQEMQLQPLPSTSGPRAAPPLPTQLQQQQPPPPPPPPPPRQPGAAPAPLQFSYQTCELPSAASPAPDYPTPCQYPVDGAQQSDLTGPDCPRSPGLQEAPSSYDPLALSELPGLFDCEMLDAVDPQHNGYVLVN
# Sequence of GST-tagged SIK1 (P57059 whole entry): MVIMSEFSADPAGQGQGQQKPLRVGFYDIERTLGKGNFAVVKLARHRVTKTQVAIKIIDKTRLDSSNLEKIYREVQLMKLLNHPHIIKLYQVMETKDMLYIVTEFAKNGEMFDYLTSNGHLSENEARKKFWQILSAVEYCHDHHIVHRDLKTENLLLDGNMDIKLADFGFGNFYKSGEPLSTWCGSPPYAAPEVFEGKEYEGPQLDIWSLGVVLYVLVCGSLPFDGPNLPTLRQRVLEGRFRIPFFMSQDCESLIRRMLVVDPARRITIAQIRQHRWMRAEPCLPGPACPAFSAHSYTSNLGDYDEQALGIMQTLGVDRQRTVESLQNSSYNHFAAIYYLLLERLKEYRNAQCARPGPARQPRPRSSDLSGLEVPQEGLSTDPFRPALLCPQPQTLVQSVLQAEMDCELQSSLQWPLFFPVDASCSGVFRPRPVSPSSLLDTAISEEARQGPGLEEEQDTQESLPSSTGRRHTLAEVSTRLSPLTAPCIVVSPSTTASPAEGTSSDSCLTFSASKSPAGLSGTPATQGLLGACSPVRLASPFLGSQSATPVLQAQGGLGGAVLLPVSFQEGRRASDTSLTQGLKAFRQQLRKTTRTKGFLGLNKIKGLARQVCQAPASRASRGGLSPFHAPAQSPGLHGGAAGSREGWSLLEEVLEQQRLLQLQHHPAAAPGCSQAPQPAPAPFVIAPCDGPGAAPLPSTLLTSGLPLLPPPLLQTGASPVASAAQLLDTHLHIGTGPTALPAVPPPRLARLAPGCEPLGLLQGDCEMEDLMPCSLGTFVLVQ
IC50 [1] [nM],IC50 [2] [nM],IC50 [3] [nM],Structure (SMILES)
5220,102,42,"COc1cc(-c2cnn3cc(OCCN4CCOCC4)ccc23)cc2c1C(=O)N(CC(F)(F)F)CC2 [Comparative Example 6, 8-methoxy-6-[6-(2-morpholinoethoxy)pyrazolo[1,5-a]pyridin-3-yl]-2-(2,2,2-trifluoroethyl)-3,4-dihydroisoquinolin-1-one, reference compound]"
7600,369,198,"COc1cc(-c2c3ccc(OCCN4CCOCC4)cc3nn2C)cc(OC(F)F)c1C(=O)NC1CC1 [Comparative Example 7, N-cyclopropyl-2-(difluoromethoxy)-6-methoxy-4-(2-methyl-6-(2-morpholinoethoxy)-2H-indazol-3-yl)benzamide, reference compound]"
> 10000,683,887,"COc1cc(-c2c3ccc(N4CCN(C)CC4)cc3nn2C)cc2c1C(=O)N(CC(F)(F)F)CC2 [Comparative Example 8, 8-methoxy-6-(2-methyl-6-(4-methylpiperazin-1-yl)-2H-indazol-3-yl)-2-(2,2,2-trifluoroethyl)-3,4-dihydroisoquinolin-1(2H)-one, reference compound]"
19.8,8.3,7.8,"COc1cc(-c2c3c(OC)cc(-c4cnn(C)c4)cc3nn2C)cc(OC(F)F)c1C(=O)N[C@@H]1C[C@@H]1F [Example 2, 2-(difluoromethoxy)-N-[(1R,2S)-2-fluorocyclopropyl]-6-methoxy-4-[4-methoxy-2-methyl-6-(1-methylpyrazol-4-yl)indazol-3-yl]benzamide]"

# Continued, compound first:
Structure (SMILES),IC50 [1] [nM],IC50 [2] [nM],IC50 [3] [nM]
"COc1cc(-c2c3c(C#N)cc(-c4cnn(C)c4)cc3nn2C)cc(OC(F)F)c1C(=O)N[C@@H]1C[C@@H]1F [Example 1, 4-[4-cyano-2-methyl-6-(1-methylpyrazol-4-yl)indazol-3-yl]-2-(difluoromethoxy)-N-[(1R,2S)-2-fluorocyclopropyl]-6-methoxybenzamide]",5.9,2.1,2.2
"COc1cc(-c2c3c(C(F)F)cc(-c4cnn(C)c4)cc3nn2C)cc(OC(F)F)c1C(=O)N[C@@H]1C[C@@H]1F [Example 3, 2-(difluoromethoxy)-4-[4-(difluoromethyl)-2-methyl-6-(1-methylpyrazol-4-yl)indazol-3-yl]-N-[(1R,2S)-2-fluorocyclopropyl]-6-methoxybenzamide]",7.6,4.5,2.3
"COc1cc(-c2c3c(OCCCO)cc(-c4cnn(C)c4)cc3nn2C)cc(OC(F)F)c1C(=O)N[C@@H]1C[C@@H]1F [Example 4, 2-(difluoromethoxy)-N-[(1R,2S)-2-fluorocyclopropyl]-4-[4-(3-hydroxypropoxy)-2-methyl-6-(1-methylpyrazol-4-yl)indazol-3-yl]-6-methoxybenzamide]",5,8.9,11.5
"COc1cc(-c2c3c(OC(F)F)cc(-c4cnn(C)c4)cc3nn2C)cc(OC(F)F)c1C(=O)N[C@@H]1C[C@@H]1F [Example 5, 2-(difluoromethoxy)-4-[4-(difluoromethoxy)-2-methyl-6-(1-methylpyrazol-4-yl)indazol-3-yl]-N-[(1R,2S)-2-fluorocyclopropyl]-6-methoxybenzamide]",10.8,5,7.6
"COc1cc(-c2c3c(OCc4ccccc4)cc(-c4cnn(C)c4)cc3nn2C)cc(OC(F)F)c1C(=O)N[C@@H]1C[C@@H]1F [Example 6, 2-(difluoromethoxy)-N-[(1R,2S)-2-fluorocyclopropyl]-6-methoxy-4-[2-methyl-6-(1-methylpyrazol-4-yl)-4-phenylmethoxyindazol-3-yl]benzamide]",2.8,7.1,8.4
